# According to patent publication US8143288B2, “Inhibitors of HCV replication” (priority 2005, dated 2012):
# Assays:
# [1] = system: HCV 1b-377-neo replicon cells; assay: HCV replicon FRET assay; assay type: cell-based; settings: Hepatitis C virus; Wild-type replicon cells, FRET assay; read-out: EC50
# [2] = Alamar blue cytotoxicity (CC50) in replicon cells; assay type: cell-based; settings: human, wild-type HCV 1b-377-neo replicon cells
# Procedure: (§1) At subsequent various times (typically 72 hours), 10% final volume Alamar blue (Cat#00-100, Trek Diagnostics, Cleveland, Ohio) was added to each well. The plates were returned to the incubator for 5 hours and then read in the Cytoflour (PE Biosystems) to determine Alamar blue conversion in each well as a measure of cellular toxicity. After reading the Alamar blue fluorescence following the manufacturers directions, plates were rinsed 2× with PBS and then used for FRET assay by the addition of 30 μl of the FRET peptide assay reagent (described above) per well. The plate was then placed into the Cytoflour 4000 instrument which had been set to 340 excite/490 emission, automatic mode for 20 cycles and the plate read in a kinetic mode. Typically, the signal to noise using an endpoint analysis after the reads was at least three-fold.
# Compound analysis depended upon the quantification of the relative HCV replicon inhibition and the relative cytotoxicity values. To calculate cytotoxicity values, the average alamar blue fluorescence signals from the control wells in row 11 were set as 100% non-toxic. The individual signals in each of the compound test wells were then divided by the average control signal and multiplied by 100% to determine […]. […]
# [3] = system: Y2065H HCV 1b-377-neo replicon cells; assay: FRET assay on Y2065H (Y > H) replicon cells; assay type: cell-based; settings: Hepatitis C virus
# [4] = Alamar blue cytotoxicity (CC50) in Y > H replicon cells; assay type: cell-based; settings: human
# Procedure: as §1
# The assay was further adapted to accommodate titrations of compounds to determine EC50 and CC50 values.
# (§2) To determine if the Y2065H change was necessary and sufficient to confer resistance to Compound A, the single mutation was generated in the HCV 1b-377-neo replicon. […] To further verify this, colonies formed in the absence of Compound A were isolated and expanded for both the wild-type and Y2065H clones. Sensitivity of these cells to Compound A was then examined using the FRET assay.
# [5] = system: wild-type HCV 1b-377-neo replicon; assay: Colony formation, wild-type replicon RNA in Huh-7 cells; assay type: cell-based; settings: 2 μM Compound A
# Description: as §2
# [6] = system: Y2065H HCV 1b-377-neo replicon; assay: Colony formation, Y2065H replicon RNA in Huh-7 cells; assay type: cell-based; settings: Y > H RNA transfected, 2 μM Compound A, 3 weeks G418 selection
# Description: as §2
# [7] = system: Compound A-r replicon cells; assay: FRET assay on selected Compound A-r replicon cells; assay type: cell-based, HCV; settings: judged by the FRET assay; cells selected with Compound A 5-6 weeks
# Procedure: HCV 1b-377-neo replicon cells were plated in 100-mm plates with ˜25% confluence after 24 hour seeding. Compound A (prepared by the procedure described in WO04/014852, published Feb. 19, 2004) was added at the final concentrations of 5, 10 and 20 μM in the presence of G418. Wild type replicon cells 15 in the absence of the compound were used as a control. After 5-6 weeks, both wt replicon cells and selected cells were tested for their sensitivity to Compound A. In addition, cell lines derived from individual colonies from different concentrations of selective Compound A were also isolated, expanded and tested. In the initial test, approximately 60-fold resistance, judged by the FRET assay, was observed between wt replicon cells and selected replicon cells (designated as Compound A-r replicon cells).
smiles,measurement,setting,value
"C[C@H](NC(=O)OCc1ccccc1)C(=O)Nc1ccc(C2S/C(=N\c3cccc(F)c3)N(Cc3ccco3)C2=O)cc1 (some centres unmarked) [Compound A, reference compound]",EC50,[1],1.5 µM
same,CC50 at 72 h,[2],> 5 µM
same,EC50,[3],> 5 µM
same,CC50 at 72 h,[4],> 5 µM
same,Number of colonies,"[5]; Wild-type RNA transfected, 3 weeks G418 selection",3
same,reduction in colony number,[5]; wild-type replicon RNA,95%
same,Number of colonies,[6],10
same,resistance between wt replicon cells and selected replicon cells,[7],approximately 60 fold
